Test results taken from patent US20090048160A1, “Antimicrobial activity of bovine bactericidal/permeability-increasing protein (BPI)-derived peptides against Gram-negative bacterial mastitis isolates” (priority 2007, published 2009).
Like-named read-outs stand apart in the source and are kept apart here. Ends that are not written are not given here.

Columns and labels:
Assay type in all cases: cell-based
E. coli strain P4 [1] = test: bactericidal activity in whey; conditions: for concentrations at which bactericidal activity was displayed: in the presence of whey; for Mean log10 colony forming units: whey, 6 hours at 37° C.
Method: (§1) Milk and blood samples were aseptically collected from 8 clinically healthy primiparous Holstein cows in mid-lactation with milk somatic cell counts of <150,000 cells/ml. All cows were determined to be free of intramammary pathogens by the absence of growth on blood agar plates spread with milk samples aseptically collected from each animal on 3 different days. For the preparation of whey, milk samples were centrifuged at 44,000×g at 4° C. for 30 min, and the fat layer removed with a spatula. The skim milk was transferred into another sterile tube, centrifuged for an additional 30 min, and the translucent supernatant collected. Milk and whey samples were pasteurized by heating at 63° C. for 30 min. For the preparation of serum, blood was collected from the coccygeal vein into vacutainer tubes containing gel and clot activator (BD Biosciences) for serum separation. The tubes were inverted ×5, the blood allowed to clot for 30 min, and the tubes centrifuged at 1500×g for 15 min. The clear serum supernatants were aseptically transferred into sterile tubes and heat-inactivated by incubating at 56° C. for 30 min. An aliquot of each sample was plated on blood agar plates and samples that were free of detectable bacterial growth were stored at −20° C.
(§2) Overnight bacterial cultures of E. coli strain P4 grown in trypticase soy broth were diluted 1:1,000 in brain heart infusion broth and incubated at 37° C. for 2 hours while shaking at 225 rpm. The log-phase bacteria were diluted 1:10 in brain heart infusion broth to obtain a final concentration of […]. 0.01 ml of the bacterial inoculum was added to a 1.5 ml sterile microcentrifuge tube containing 0.04 ml of serum, milk, or whey. A 0.05 ml aliquot of either peptide or CBS alone was added to each tube. The samples were then shaken at 100 rpm for 6 hours at 37° C. The sample mixtures were subsequently serially diluted in sterile phosphate-buffered saline and plated on MacConkey agar plates (BD Biosciences). The plates were incubated overnight at 37° C. and the colonies enumerated.
(§3) However, bBPI90-99,148-161 was able to inhibit >99% of the growth of E. coli in milk. Because milk appeared to have an inhibitory effect on the bactericidal activity of bBPI90-99,148-161, the peptides were subsequently evaluated for their ability to retain activity in whey, which is the casein-depleted, protein-rich liquid fraction of milk (Table 4).

E. coli strain P4 [2] = test: bactericidal activity in serum; conditions: for Mean log10 colony forming units: serum, 6 hours at 37° C.
Method: as §1, §2
(§4) To determine whether bBPI142-169 and bBPI90-99,148-161 retained their bactericidal activity in physiological fluids, the peptides were incubated with E. coli strain P4 (1×10^5 CFU) in the presence of serum (Table 2) or milk (Table 3).

Enterobacter aerogenes = system: Enterobacter aerogenes
Description: (§5) Bacterial isolates of Escherichia coli, Klebsiella pneumonia, Serratia marcescens, Pseudomonas aeruginosa, Enterobacter cloacae, and Enterobacter aerogenes, which were obtained from clinical cases of bovine mastitis, were used to assess the bactericidal activity of peptides in a broth microdilution assay. Isolates were obtained from repositories at Cornell University (gift of Dr. Y. H. Schukken; Quality Milk Production Services Program, Cornell University, Ithaca N.Y.) and the USDA Beltsville Agricultural Research Center. […] A. J. Bramley, Institute for Animal Health, Compton Laboratory, Newbury, England), which was originally isolated from a clinical case of mastitis ([…]. Dairy Res. 43: 205-211) was also used to assess the bactericidal activity of the peptides in biological fluids. Reference strains of E. coli (ATCC 25922) and Staphylococcus aureus (ATCC 29213) were obtained from a commercial source (American Type Culture Collection (ATCC), Manassas, Va.). To obtain fresh inoculums for evaluation, a sterile loop of each bacterial glycerol stock was streaked on a blood agar plate. After an overnight incubation at 35° C., a single uniform colony was picked and sub-passaged by streaking on a new blood agar plate and incubating the plate overnight at 35° C. To evaluate the antimicrobial activity of the peptides against various clinical mastitis bacterial isolates, the minimum inhibitory concentration (MIC) and the minimum bactericidal concentration (MBC) of these peptides against the isolates were determined using a standardized broth microdilution assay. In addition to the mastitis isolates, E. coli (ATCC 25922) and S. aureus (ATCC 29213) reference strains were evaluated. […] The assays were performed in accordance with Clinical and Laboratory Standards Institute (CLSI) [formerly National Committee for Clinical Laboratory Standards (NCCLS)] guidelines (National Committee for Clinical Laboratory Standards. 1999. Methods for Determining Bacterial Activity of Antimicrobial Agents: Approved Guideline. Wayne, Pa.; National Committee for Clinical Laboratory Standards. 2002. Performance Standards for Antimicrobial Disk and Dilution Susceptibility Tests for Bacteria Isolated from Animals: Approved Standard. 2nd Edition, Wayne, Pa.). […] The bacterial suspension was then diluted 100-fold in cation-adjusted Mueller-Hinton broth to reach a final inoculum concentration of 10^6 CFU/ml. […] A negative control column was included in the plate that included 100 μl of broth alone. The plates were incubated for 18 h at 35° C. with ambient air circulation and without shaking. The wells were subsequently inspected for cloudiness and pellet formation using a magnifying glass plate reader. The lowest concentration at which no pellet or cloudiness was apparent in a given well was identified as the MIC. […] The plates were incubated overnight at 35° C. and colonies subsequently enumerated. The MBC values were determined as the lowest concentration at which ≧99.9% of inoculated bacteria were killed. All assays were performed in triplicate and the MIC and MBC range reported.

E. coli strain P4 [3] = conditions: for Mean log10 colony forming units: milk, 6 hours at 37° C.
Method: as §1, §2, §4, §3

Staphylococcus aureus = test: microbe, parasite or virus in culture
Description: as §5

Pseudomonas aeruginosa = test: microbe, parasite or virus in culture
Description: as §5

Serratia marcescens = test: microbe, parasite or virus in culture
Description: as §5

Enterobacter cloacae = test: microbe, parasite or virus in culture
Description: as §5

Sequence | concentrations at which bactericidal activity was displayed (E. coli strain P4 [1]) | Mean log10 colony forming units (E. coli strain P4 [1]; peptide 0.1 μg/ml) | Mean log10 colony forming units (E. coli strain P4 [1]; peptide 1 μg/ml) | Mean log10 colony forming units (E. coli strain P4 [1]; peptide 10 μg/ml) | Mean log10 colony forming units (E. coli strain P4 [1]; peptide 100 μg/ml) | Mean log10 colony forming units (E. coli strain P4 [2]; peptide 0.1 μg/ml) | Mean log10 colony forming units (E. coli strain P4 [2]; peptide 1 μg/ml) | Mean log10 colony forming units (E. coli strain P4 [2]; peptide 10 μg/ml) | Mean log10 colony forming units (E. coli strain P4 [2]; peptide 100 μg/ml) | MBC (Enterobacter aerogenes) [µg/mL] | MIC (Enterobacter aerogenes) [µg/mL] | Mean log10 colony forming units (E. coli strain P4 [3]; peptide 20 μg/ml) | Mean log10 colony forming units (E. coli strain P4 [3]; peptide 200 μg/ml) | Mean log10 colony forming units (E. coli strain P4 [3]; peptide 2000 μg/ml) | MBC (Staphylococcus aureus) [µg/mL] | MIC (Staphylococcus aureus) [µg/mL] | MBC (Serratia marcescens) [µg/mL] | MIC (Serratia marcescens) [µg/mL] | MBC (Pseudomonas aeruginosa) [µg/mL] | MIC (Pseudomonas aeruginosa) [µg/mL] | further results
KWKARKNFIKGSSLGWLIQLFRKR [bBPI90-99,148-161] | ≥ 10 µg/mL | 8.17 log10 colony forming units | 7.97 log10 colony forming units | 0 log10 colony forming units | 0 log10 colony forming units | 8.25 log10 colony forming units | 8.15 log10 colony forming units | 0 log10 colony forming units | 0 log10 colony forming units | 64 | 64 | 8.65 log10 colony forming units | 7.89 log10 colony forming units | 6.55 log10 colony forming units | 64 to 128 | 64 | >512 | >512 | – | – | concentrations at which bactericidal activity was demonstrated (E. coli strain P4 [2]; in the presence of serum): ≥ 10 µg/mL; inhibition of the growth of E. coli (E. coli strain P4 [3]; strain P4, 2 mg/ml): > 99%; MIC and MBC values (Pseudomonas aeruginosa): ≤ 128 µg/mL; MIC and MBC values (Enterobacter cloacae): ≤ 64 µg/mL
NSQIRPLPDKGLDLSIRDASIKIRGKWKARKNFIK [bBPI65-99] | neither bBPI65-99 nor bBPI142-169 demonstrated bactericidal activity at any concentration tested | 8.47 log10 colony forming units | 8.26 log10 colony forming units | 8.16 log10 colony forming units | 7.36 log10 colony forming units | 8.27 log10 colony forming units | 8.28 log10 colony forming units | 8.23 log10 colony forming units | 8.07 log10 colony forming units | >256 | >256 | 8.69 log10 colony forming units | 8.54 log10 colony forming units | 8.06 log10 colony forming units | >256 | >256 | >512 | >512 | >256 | >256 | MBC (Enterobacter cloacae): >256 µg/mL; MIC (Enterobacter cloacae): >256 µg/mL
VRIHISGSSLGWLIQLFRKRIESLLQKS [bBPI142-169] | neither bBPI65-99 nor bBPI142-169 demonstrated bactericidal activity at any concentration tested | 8.29 log10 colony forming units | 8.44 log10 colony forming units | 8.10 log10 colony forming units | 7.45 log10 colony forming units | 8.42 log10 colony forming units | 8.38 log10 colony forming units | 8.29 log10 colony forming units | 7.96 log10 colony forming units | >256 | – | 8.67 log10 colony forming units | 8.55 log10 colony forming units | 7.99 log10 colony forming units | 128 to 256 | 128 to 256 | >512 | >512 | >256 | >256 | MBC (Enterobacter cloacae): >256 µg/mL; MIC (Enterobacter cloacae): >256 µg/mL
